For orientation: melting point means the temperature of the solid-liquid transition. Consider `CCCCCCCCCCNC(=O)c1cc(C(=O)NCCCCCCCCCC)cc(N(CCCC(=O)O)CCCC(=O)O)c1`, for which the melting point lay within 154 to 156 °C.
In the case of `CN1C(=O)C=C(c2ccccc2)C1(C)O` (centres undefined), the melting point is 148 to 152 °C.
Consider `COC(=O)[C@H](C)NC(=O)C(=O)Nc1ccccc1C(C)(C)C`, for which the melting point lay within 60.1 to 62.1 °C.
Next, `CNC1=NS(=O)(=O)N=C1NCCCCc1ccc(CN(C)C)o1`: 152 to 153 °C.
Next, `O=C1c2ccccc2CN1C1CCN(c2ccc(C(OCCCc3ccccc3)c3ccccc3)cc2)CC1` (centres undefined): 117 to 120 °C; `CCc1ccc2c(c1)C=Cc1cc(CC)ccc1C2c1cn(Cc2nc(C(=O)O)cs2)c(=O)[nH]c1=S`: 162 to 165 °C; `CC(C)OC(=O)c1cc(NC(=O)C(C)(C)C)c(F)cc1Cl`: 81 to 83 °C.
As for `O=C(CCN1CCCC1)Nc1ccc2c(c1)C(=O)c1cc(NC(=O)CCN3CCCC3)ccc1C2=O`, the figure is 233 °C.
As for `N#CC1(C#N)C2CC(C3OC32)C1(Cl)Cl` (centres undefined), the melting point was found to be 229 °C.
Regarding `FC(F)(F)c1cccc(-c2ccn3ncnc3n2)c1`, the melting point lay in the range of 201 to 202 °C.
`O=[N+]([O-])c1ccc2c(ccn2-c2cccnc2)c1` came in with a melting point of 164 to 165 °C.
`N=C(N)c1ccc(-n2ccn(-c3ccc(C=CC(=O)O)cc3)c2=O)cc1` yielded a melting point above 350 °C.
`CCOC(=O)c1ncc2[nH]c3ccc(N)cc3c2n1` displayed a melting point of 256 to 258 °C.
As for `COc1cc2c(cc1S(=O)(=O)c1cccs1)[C@@H](N1CCCC1=O)[C@H](O)C(C)(C)O2` (relative stereo), the figure is 135 to 136 °C; as for `CCCCS(=O)(=O)c1ccc2nn(-c3cc(C(C)(C)CC(C)(C)C)cc(C(C)(C)c4ccccc4)c3O)nc2c1`, 118 °C; as for `COC(=O)c1cccc(-n2cnc3cc(-c4ccno4)ccc32)c1`, 190 to 191 °C.
As for `CCOC=C1C(=O)N(c2cccc(Cl)c2)c2ccccc21`, the figure is 132 to 134 °C; as for `COC(=O)[C@H](Cc1ccc([N+](=O)[O-])cc1)NC(=O)C1(CCCCS(C)(=O)=O)CCCC1`, 40 to 44 °C.
As for `CCOC(=O)C(NS(=O)(=O)c1ccc(C)cc1)C1CCOC1` (centres undefined), the figure is 104 to 105 °C; as for `OC1CSC(Oc2cncc(-c3ccc(C(F)(F)F)cc3)c2)C(O)C1O` (centres undefined), 218 to 219 °C.
Turning to `CCOC(=O)c1nccc2c(C)c3c(cc12)c1cc(O)ccc1n3CC`, the melting point stood at 260 °C.
Take `CC=CC1=NC(=Cc2cccs2)C(=O)O1`: the melting point lay within 174 to 176 °C.
`NC(=O)C1CCN(C(=O)CNC(=O)CNC(=O)CN2CCCC2=O)CC1` came in with a melting point of 225 to 227 °C.
As for `CC(C)(C)Oc1ccc(C(N)=O)cc1`, the figure is 135 to 136 °C; as for `CS(=O)(=O)c1ccnc(Oc2cc(C#N)cc(C#N)c2)n1`, 189 to 191 °C.
As for `CC1SC(=O)NN=C1c1cccc(N)c1` (centres undefined), the figure is 167 to 170 °C; as for `CC(=NOCCOc1ccc(CC2SC(=O)NC2=O)cc1)c1ccc2ccccc2c1` (centres undefined), 138 to 139 °C.
The compound `Cc1cc(C2=NOC(c3cc(Cl)cc(Cl)c3)(C(F)(F)F)C2)ccc1C(=O)Nc1ncccn1` (centres undefined) yielded a melting point of 122 to 124 °C.
As for `O=C(O)c1c(F)cc(F)c(F)c1NCc1ccccc1`, the melting point was in the range of 140 to 141 °C.
As for `COc1ccc(C(=O)Nc2c(F)cccc2F)cc1OC1CCCC1`, the figure is 158 to 160 °C.
As for `Cc1cc(C(N)=O)ncc1C(c1c(F)ccc(F)c1F)S(=O)(=O)CCCO` (centres undefined), the figure is 148 to 150 °C.
`C=C1CC(COc2cccc3cccnc23)(c2ccc(Cl)cc2)OC1=O` (centres undefined) returned a melting point of 107 to 108 °C.
Next, `Cn1c(C(F)(F)F)c(C#N)c2ccc(Cl)cc21`: 142 to 145 °C; `c1cnc2scc(Nc3ccncc3)c2c1`: 200 to 204 °C.

For the origin of these results see a melting point compilation (Tetko et al.; mined from patent text by program, amines drawn as free bases though some values may be those of a salt).
